Assay results published in patent publication US10047074B2, “Pharmaceutical compound” (IOmet Pharma Ltd., priority 2014, dated 2018).

What was measured:
[1] = biological target: T1, TDO (A172) (Homo sapiens, UniProt P48775); experiment: A172 Kynurenine cell based assay; settings: A172 human glioblastoma cells expressing TDO; kynurenine production, 48 hours
T1 construct: This assay utilised cancer cells which expressed either TDO (A172) or IDO (SKOV3); endogenous in cells; host or cells: A172 (human glioblastoma)
T1 sequence (P48775 whole entry): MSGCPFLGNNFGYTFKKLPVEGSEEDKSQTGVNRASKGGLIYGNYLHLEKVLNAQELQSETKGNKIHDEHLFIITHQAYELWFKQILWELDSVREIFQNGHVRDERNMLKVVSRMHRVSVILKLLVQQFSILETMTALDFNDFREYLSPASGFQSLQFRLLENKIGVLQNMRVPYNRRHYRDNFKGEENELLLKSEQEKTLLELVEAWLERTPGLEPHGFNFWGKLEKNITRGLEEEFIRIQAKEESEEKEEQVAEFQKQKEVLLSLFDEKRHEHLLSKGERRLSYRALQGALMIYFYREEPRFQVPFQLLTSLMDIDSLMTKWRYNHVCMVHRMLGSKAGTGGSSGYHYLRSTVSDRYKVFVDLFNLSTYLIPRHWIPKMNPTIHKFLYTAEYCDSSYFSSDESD
Method: (§1) Exemplary compounds of the invention were prepared, and tested to determine their effect as TDO and/or IDO inhibitors. Two different assays were employed: 1. a cell-based assay for detecting the effect of test compounds on kynurenine production in two different cancer cell types. This assay utilised cancer cells which expressed either TDO (A172) or IDO (SKOV3) and as such was used as a means of testing compound activity at these two enzymes in a cell-based context. 2. a TDO and IDO biochemical coupled assay which utilised recombinantly produced and purified TDO and IDO enzymes in combination with the enzyme formamidase. This coupled enzyme system allowed conversion of N-formylkynurenine produced by TDO or IDO activity to kynurenine which was then quantified by fluorescence following addition of Erhlich's Reagent The protocols for these are set out below.
(§2) Cell Based Assay for Detection of Kynurenine Produced by TDO and/or IDO
(§3) A172 (human glioblastoma) and SKOV3 (human ovarian adenocarcinoma) cells were seeded in a 96 well plate at 30,000 or 40,000 cells per well respectively in phenol red-free RPMI supplemented with 10% FCS, 2 mM L-glutamine and 500 µM L-tryptophan. IDO expression was induced in the SKOV3 cells by the addition of 500 ng/ml IFN-γ. Cells were incubated at 37° C. with or without the addition of test compound. After 48 hours, the cells were removed by centrifugation and Erhlich's reagent was added to the supernatant. The Erhlich's reagent was incubated for 5 minutes before the absorbance was read at 490 nm.

[2] = biological target: T2, IDO (SKOV3) (Homo sapiens, UniProt P14902); experiment: SKOV3 Kynurenine cell based assay; settings: SKOV3 human ovarian adenocarcinoma cells, IDO induced by IFN-γ; kynurenine production, 48 hours
T2 construct: IDO expression was induced in the SKOV3 cells by the addition of 500 ng/ml IFN-γ; endogenous in cells; host or cells: SKOV3 (human ovarian adenocarcinoma), IFN-γ induced
T2 sequence (P14902 whole entry): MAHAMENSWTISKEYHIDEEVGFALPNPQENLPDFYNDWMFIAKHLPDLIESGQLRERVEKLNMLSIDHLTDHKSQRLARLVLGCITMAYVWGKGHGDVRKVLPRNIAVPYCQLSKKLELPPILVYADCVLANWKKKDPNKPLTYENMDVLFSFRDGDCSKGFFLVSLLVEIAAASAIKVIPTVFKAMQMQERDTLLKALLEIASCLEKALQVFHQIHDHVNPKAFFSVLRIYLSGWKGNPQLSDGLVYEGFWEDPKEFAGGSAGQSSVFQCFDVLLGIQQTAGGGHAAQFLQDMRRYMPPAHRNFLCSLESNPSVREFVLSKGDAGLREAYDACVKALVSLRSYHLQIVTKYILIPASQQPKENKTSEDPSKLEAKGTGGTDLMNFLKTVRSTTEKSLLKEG
Method: as §1, §2
as §3, with “supernatant.” for “supernatant. The Erhlich's reagent was incubated for 5 minutes before the absorbance was read at 490 nm.”

[3] = biological target: Recombinant human IDO (Homo sapiens, UniProt P14902); experiment: hIDO biochemical assay (coupled with formamidase); settings: coupled with kynurenine formamidase, fluorescence
Chain of Recombinant human IDO (P14902 whole entry): as above
Method: as §1
(§4) TDO and IDO Biochemical Coupled Assay
(§5) Recombinant human IDO or TDO was incubated in 50 mM KPO4 (pH 7.0), 0.5 mM EGTA, 0.5 mM EDTA, 0.05% Triton™ X100, 20 mM ascorbate, […] methylene blue, 500 U/ml catalase, 50 μg/ml KynB (kynurenine formamidase). TDO assays were carried out in the presence of 330 μM L-tryptophan, while IDO assays had the addition of 45 µM L-tryptophan. After incubation for 17 minutes at room temperature the reactions were stopped by the addition of Erhlich's reagent and incubated at room temperature for 5 minutes before the fluorescence was read (Ex475, Em530).

[4] = biological target: Recombinant human TDO (Homo sapiens, UniProt P48775); experiment: hTDO biochemical assay (coupled with formamidase); settings: 330 μM L-tryptophan, coupled with kynurenine formamidase, fluorescence
Chain of Recombinant human TDO (P48775 whole entry): as the sequence (P48775 whole entry) above
Method: as §1, §4, §5

| A172 Kynurenine cell based assay pIC50 [1] | SKOV3 Kynurenine cell based assay pIC50 [2] | hIDO biochemical assay pIC50 [3] | hTDO biochemical assay pIC50 [4] | SMILES |
| --- | --- | --- | --- | --- |
| +++ (+++ = pIC50 ≥ 5.50) | ++ (++ = pIC50 4.50-5.49) | ++ (++ = pIC50 4.50-5.49) | ++ (++ = pIC50 4.50-5.49) | Nc1oncc1-c1ccc(F)cc1 [Compound 1] |
| +++ (+++ = pIC50 ≥ 5.50) | ++ (++ = pIC50 4.50-5.49) | ++ (++ = pIC50 4.50-5.49) | + (+ = pIC50 4.00-4.49) | Nc1noc(N)c1-c1cccc(Cl)c1 [Compound 5] |
| +++ (+++ = pIC50 ≥ 5.50) | ++ (++ = pIC50 4.50-5.49) | ++ (++ = pIC50 4.50-5.49) | ++ (++ = pIC50 4.50-5.49) | Nc1oncc1-c1ccccc1 [Compound 7] |
| +++ (+++ = pIC50 ≥ 5.50) | ++ (++ = pIC50 4.50-5.49) | ++ (++ = pIC50 4.50-5.49) | + (+ = pIC50 4.00-4.49) | Nc1oncc1-c1cccc(F)c1 [Compound 13] |
| ++ (++ = pIC50 4.50-5.49) | + (+ = pIC50 4.00-4.49) | + (+ = pIC50 4.00-4.49) | + (+ = pIC50 4.00-4.49) | CC(=O)Nc1oncc1-c1ccccc1 [Compound 17] |
| + (+ = pIC50 4.00-4.49) | ++ (++ = pIC50 4.50-5.49) | +++ (+++ = pIC50 ≥ 5.50) | +/− (+/− = pIC50 < 4.00) | O=S(=O)(Nc1oncc1-c1ccccc1)c1ccccc1 [Compound 26] |
| ++ (++ = pIC50 4.50-5.49) | ++ (++ = pIC50 4.50-5.49) | ++ (++ = pIC50 4.50-5.49) | ++ (++ = pIC50 4.50-5.49) | CC(C)C(=O)Nc1oncc1-c1ccccc1 [Compound 34] |
| +++ (+++ = pIC50 ≥ 5.50) | ++ (++ = pIC50 4.50-5.49) | +/− (+/− = pIC50 < 4.00) | + (+ = pIC50 4.00-4.49) | O=C(Nc1oncc1-c1ccccc1)c1ccccc1 [Compound 49] |
| ++ (++ = pIC50 4.50-5.49) | ++ (++ = pIC50 4.50-5.49) | ++ (++ = pIC50 4.50-5.49) | – | N#Cc1ccc(-c2cnoc2N)cc1 [Compound 50] |
| ++ (++ = pIC50 4.50-5.49) | + (+ = pIC50 4.00-4.49) | – | – | CN(C)C(=O)CCC(=O)Nc1oncc1-c1ccccc1 [Compound 58] |
| +/− (+/− = pIC50 < 4.00) | + (+ = pIC50 4.00-4.49) | – | – | O=S(=O)(Nc1oncc1-c1ccccc1)c1cccnc1 [Compound 59] |
| ++ (++ = pIC50 4.50-5.49) | + (+ = pIC50 4.00-4.49) | – | – | CN(C)C(=O)CNc1oncc1-c1ccccc1 [Compound 60] |
| + (+ = pIC50 4.00-4.49) | +/− (+/− = pIC50 < 4.00) | – | – | CN1CCCCC1C(=O)Nc1oncc1-c1ccccc1 (stereo not drawn) [Compound 61] |
| ++ (++ = pIC50 4.50-5.49) | ++ (++ = pIC50 4.50-5.49) | – | – | O=C(Nc1oncc1-c1ccccc1)c1cccnc1 [Compound 62] |
| +++ (+++ = pIC50 ≥ 5.50) | ++ (++ = pIC50 4.50-5.49) | + (+ = pIC50 4.00-4.49) | +/− (+/− = pIC50 < 4.00) | O=C(CO)Nc1oncc1-c1ccccc1 [Compound 63] |
| ++ (++ = pIC50 4.50-5.49) | + (+ = pIC50 4.00-4.49) | – | – | CC(C)(O)C(=O)Nc1oncc1-c1ccccc1 [Compound 64] |
| +++ (+++ = pIC50 ≥ 5.50) | ++ (++ = pIC50 4.50-5.49) | – | – | CNC(=O)CCC(=O)Nc1oncc1-c1ccccc1 [Compound 65] |

| A172 Kynurenine cell based assay pIC50 [1] | SKOV3 Kynurenine cell based assay pIC50 [2] | hIDO biochemical assay pIC50 [3] | hTDO biochemical assay pIC50 [4] | SMILES |
| --- | --- | --- | --- | --- |
| ++ (++ = pIC50 4.50-5.49) | +/− (+/− = pIC50 < 4.00) | – | – | O=C(Nc1oncc1-c1ccccc1)C1CCCN1 (stereo not drawn) [Compound 66] |
| +/− (+/− = pIC50 < 4.00) | + (+ = pIC50 4.00-4.49) | – | – | Nc1oncc1-c1ccccc1[N+](=O)[O-] [Compound 67] |
| ++ (++ = pIC50 4.50-5.49) | + (+ = pIC50 4.00-4.49) | – | – | Nc1oncc1-c1ccccc1O [Compound 68] |
| +++ (+++ = pIC50 ≥ 5.50) | + (+ = pIC50 4.00-4.49) | – | – | CN(C)CCC(=O)Nc1oncc1-c1ccccc1 [Compound 69] |
| ++ (++ = pIC50 4.50-5.49) | ++ (++ = pIC50 4.50-5.49) | – | – | O=C(Nc1nnnn1-c1ccccc1)c1ccccc1 [Compound 70] |
| ++ (++ = pIC50 4.50-5.49) | + (+ = pIC50 4.00-4.49) | – | – | CNCC(=O)Nc1oncc1-c1ccccc1 [Compound 71] |
| +/− (+/− = pIC50 < 4.00) | + (+ = pIC50 4.00-4.49) | – | – | CC(C)CS(=O)(=O)Nc1cncn1-c1ccccc1 [Compound 72] |
| +++ (+++ = pIC50 ≥ 5.50) | ++ (++ = pIC50 4.50-5.49) | – | – | NCC(=O)Nc1oncc1-c1ccccc1 [Compound 73] |
| + (+ = pIC50 4.00-4.49) | + (+ = pIC50 4.00-4.49) | – | – | O=C(Nc1oncc1-c1ccccc1)C(O)C1CCCCC1 (stereo not drawn) [Compound 74] |
| +++ (+++ = pIC50 ≥ 5.50) | + (+ = pIC50 4.00-4.49) | ++ (++ = pIC50 4.50-5.49) | ++ (++ = pIC50 4.50-5.49) | CC(O)C(=O)Nc1oncc1-c1ccccc1 (stereo not drawn) [Compound 75] |
| ++ (++ = pIC50 4.50-5.49) | + (+ = pIC50 4.00-4.49) | – | – | O=C(Nc1oncc1-c1ccccc1)C(O)c1ccccc1 (stereo not drawn) [Compound 76] |
| +/− (+/− = pIC50 < 4.00) | + (+ = pIC50 4.00-4.49) | – | – | O=C(Nc1cnoc1-c1ccccc1)c1ccccc1 [Compound 77] |
| ++ (++ = pIC50 4.50-5.49) | + (+ = pIC50 4.00-4.49) | – | – | Nc1oncc1-c1ccccc1CCO [Compound 78] |
| +/− (+/− = pIC50 < 4.00) | ++ (++ = pIC50 4.50-5.49) | – | – | O=S(=O)(Nc1cncn1-c1ccccc1)c1ccccc1 [Compound 79] |
| +/− (+/− = pIC50 < 4.00) | + (+ = pIC50 4.00-4.49) | ++ (++ = pIC50 4.50-5.49) | +/− (+/− = pIC50 < 4.00) | CC(C)CS(=O)(=O)Nc1cnoc1-c1ccccc1 [Compound 80] |
| +++ (+++ = pIC50 ≥ 5.50) | ++ (++ = pIC50 4.50-5.49) | + (+ = pIC50 4.00-4.49) | +/− (+/− = pIC50 < 4.00) | CC(N)C(=O)Nc1oncc1-c1ccccc1 (stereo not drawn) [Compound 81] |
| +++ (+++ = pIC50 ≥ 5.50) | + (+ = pIC50 4.00-4.49) | – | – | NCCNc1oncc1-c1ccccc1 [Compound 82] |
